Where a SMILES comes first, the peptide text is derived from it. Bridges are numbered along the chain shown (N, C = ends).
Experiments:
[1] = Ferric Reducing Antioxidant Power (FRAP) assay
Description: OxiSelect Ferric Reducing Antioxidant Power (FRAP) Assay Kit (Cell Biolabs, USA) was used to measure the antioxidant potential of cocotide tC1. The assay was performed according to the manufacturer’s instructions .

HaCaT cells = assay: Tandem-mass-tag (TMT) quantitative proteomic profiling; assay type: cell-based, human; conditions: serum starved overnight, 10 μM tC1 for 24 h, versus untreated
Description: Tandem-mass tag quantitative proteomic profiling was performed according to the manufacturer’s instructions . Briefly, HaCaT cells treated with or without cocotide tC1 were harvested and lysed by sonication for 3 min at 25% amplitude with a 2-s-on, 3-s-off pulse time in 8 M urea and 10 mM ammonium bicarbonate supplemented with a protease inhibitor. After centrifugation, quantification of the total proteins was performed by the BCA method. A total of 100 μg of protein from each condition was subjected to in-solution digestion before labeling the resultant peptides using the TMT-10plex Isobaric Label Reagent Set (Thermo Scientific, Rockford, IL, USA) according to the manufacturer’s protocol. […] Eluate was collected in 1 min fractions and strategically pooled via concatenation based on absorbance measurements at a wavelength of 280 nm. […]
The fractionated peptides were separated and analyzed using a Dionex Ultimate 3000 RSLCnano system coupled to a Q Exactive instrument (Thermo Fisher Scientific, MA, USA). […] Peptides were then analyzed on a Q Exactive apparatus with an EASY nanospray source (Thermo Fisher Scientific) at an electrospray potential of 1.8 kV. […] Raw data files were processed, searched, and TMT 10-plex was selected as the quantification method using Peaks Studio 11 with the UniProt human proteome (Proteome ID: UP000005640) as the reference proteome. […]

HaCaT cell lysate = target: T1, HaCaT cell lysate (Homo sapiens, UniProt P22830); assay type: binding; conditions: affinity enrichment mass spectrometry
T1 construct: incubated with HaCaT keratinocyte lysates; endogenous in cells; host or cells: HaCaT human keratinocytes
T1 sequence (P22830 55-423): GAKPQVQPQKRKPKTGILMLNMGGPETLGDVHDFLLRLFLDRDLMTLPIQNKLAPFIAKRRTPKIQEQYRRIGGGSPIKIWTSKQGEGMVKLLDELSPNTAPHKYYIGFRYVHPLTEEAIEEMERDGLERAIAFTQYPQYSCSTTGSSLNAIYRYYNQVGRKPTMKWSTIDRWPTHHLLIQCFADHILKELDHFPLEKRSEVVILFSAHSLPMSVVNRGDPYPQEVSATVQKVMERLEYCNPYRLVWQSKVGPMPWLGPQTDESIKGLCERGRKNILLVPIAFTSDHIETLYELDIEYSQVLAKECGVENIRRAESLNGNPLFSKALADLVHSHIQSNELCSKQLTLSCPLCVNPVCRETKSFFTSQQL

[2] = Post-translational modification analysis of methionine oxidation (tims-TOF MS/MS); assay type: physicochemical; conditions: native peptide, during extraction and purification
Description: The primary sequences of cocotides from Theobroma cacao aqueous extracts were determined by LC-MS/MS sequencing as described previously. The C18-SPE fractionated Theobroma cacao aqueous extracts were redissolved in 20 mM DTT at 37 °C for 1 h followed by S-alkylation with 200 mM iodoacetamide at 37 °C for 1 h. The mixture was desalted with a C18 Zip-tip and subjected to analysis on a trapped ion mobility spectrometer-time-of-flight tandem mass spectrometer (tims-TOF MS/MS). Data analysis was performed using PEAKS Studio (version 11, Bioinformatics Solutions, Waterloo, ON, Canada) with a precursor ion tolerance of 10 ppm and a fragment ion tolerance of 0.05 Da. Carbamidomethylation at Cys was set as a fixed modification. Deamidation of […], oxidation of Met, and acetylation at Lys and N-term were set as variable modification. Peptide sequencing was performed using PEAKS DB protein identification, which integrates database search of an in-house ginsentide-like peptide library derived from Theobroma cacao transcriptome with de novo sequencing.

Q: Which results are given for `CC[C@H](C)[C@@H]1NC(=O)CNC(=O)[C@H](CCSC)NC(=O)[C@@H]2CCCN2C(=O)[C@H](Cc2ccc(O)cc2)NC(=O)[C@H](CC(C)C)NC(=O)[C@@H]2CSSC[C@@H]3NC(=O)[C@H](Cc4ccccc4)NC(=O)CNC(=O)CNC(=O)[C@H](C)NC(=O)[C@H](CO)NC(=O)[C@H](CC(C)C)NC(=O)[C@@H](N)CSSC[C@@H]4NC(=O)[C@H](CSSC[C@H](NC1=O)C(=O)N[C@@H](Cc1ccc(O)cc1)C(=O)NCC(=O)N[C@@H](CO)C(=O)NCC(=O)N[C@H](C(=O)O)CSSC[C@H](NC(=O)[C@H](CC(N)=O)NC(=O)CNC4=O)C(=O)NCC(=O)N2)NC(=O)[C@H](CC(=O)O)NC(=O)[C@H](CCSC)NC(=O)[C@@H]1CCCN1C(=O)[C@H](CC(N)=O)NC(=O)[C@H](Cc1ccccc1)NC(=O)[C@H](CCSC)NC3=O` [cocotide tC1] (H-CLSAGGFCMFNPMDCCGNCGCLYPMGICYGSGC-OH; disulfide 1-16, 8-21, 15-28, 19-33; N-terminus and C-terminus assumed)?
A: antioxidant power relative to ascorbic acid ([1]; FRAP value of tC1 versus ascorbic acid (positive control)): 152 fold; FRAP value ([1]; OxiSelect FRAP Assay Kit): 55.1 Fe^2+ μM/μM; number of downregulated proteins (minimum 2-fold, significance value >15) (HaCaT cells): 3 proteins; number of upregulated proteins (minimum 2-fold, significance value >15) (HaCaT cells): 19 proteins; ferrochelatase as interacting protein (HaCaT cell lysate): significant interacting partner; Met19 and Met25 oxidized to Met(O) [2]: < 5%; methionine at position 9 converted to Met(O) [2]: 27%

From publication PMC12311725, “Identification of Ginsentide-like Peptides from Cacao Beans with Oxidative Stress Protection” (ACS Omega, 2025)
